From patent publication US20030153621A1, “Use of 13-hode as a regulator of vascular biocompatibility and an inhibitor of cell hyperplasia” (priority 2000, published 2003)
Where two headings read alike, the source gives them in different places.

What was measured:
Sarcoma 180 tumors = settings: given orally; cited from earlier work
[1] = Vessel wall 13-HODE levels in rabbits after oral 13-HODE; format: in vivo, New Zealand white rabbits
Experimental: (§1) New Zealand white rabbits (half males/half females; 2.5-2.9 kg) were used throughout. Rabbits were treated with 100, 400 or 1000 μg/kg/day of purified 13-HODE suspended in corn oil or ethyl-eicosapentaenoic acid (EPA), or with an equivolume of either suspending vehicle (total volume 1 ml) for 7 days. Serial blood samples were collected before, during and after treatment to assess the levels of 13-HODE in plasma. On day 7, the treatments were stopped. At that time, the rabbits were anaesthetised with a combination of Atravet, Ketamine, Vetrepham and glycopyrolate, given subcutaneously. Both carotid arteries of anaesthetised rabbits were isolated between 2 temporary ligatures, first by applying the proximal ligature, then allowing the blood to drain from the segment, and then applying the distal ligature. A 24-gauge angiocath attached to tubing filled with sterile saline and connected to a pressure manometer, was inserted into the isolated segment. Then the segment was filled with the saline to a pressure of 600 mm Hg which was maintained for 5 minutes. The pressure was relieved, and the angiocath and ligatures were removed, thereby allowing for blood flow restoration. Cessation of bleeding from the needle puncture site was achieved within 3 minutes without any manual manipulation. The incisions were sutured closed with 000 proline. […]

[2] = Plasma 13-HODE levels in rabbits after oral 13-HODE; format: in vivo, New Zealand white rabbits
Experimental: (§2) New Zealand white rabbits (half males/half females; 2.5-2.9 kg) were used throughout. Rabbits were treated with 100, 400 or 1000 μg/kg/day of purified 13-HODE suspended in corn oil or ethyl-eicosapentaenoic acid (EPA), or with an equivolume of either suspending vehicle (total volume 1 ml) for 7 days. Serial blood samples were collected before, during and after treatment to assess the levels of 13-HODE in plasma. On day 7, the treatments were stopped. At that time, the rabbits were anaesthetised with a combination of Atravet, Ketamine, Vetrepham and glycopyrolate, given subcutaneously. Both carotid arteries of anaesthetised rabbits were isolated between 2 temporary ligatures, first by applying the proximal ligature, then allowing the blood to drain from the segment, and then applying the distal ligature. A 24-gauge angiocath attached to tubing filled with sterile saline and connected to a pressure manometer, was inserted into the isolated segment. Then the segment was filled with the saline to a pressure of 600 mm Hg which was maintained for 5 minutes. The pressure was relieved, and the angiocath and ligatures were removed, thereby allowing for blood flow restoration. Cessation of bleeding from the needle puncture site was achieved within 3 minutes without any manual manipulation. The incisions were sutured closed with 000 proline. The rabbits were injected intramuscularly with Temgesic to minimize any pain and with 12.5 mg Baytril as an antibiotic, and then allowed to recover. This injury procedure results in endothelial denudation and the exposure of a thrombogenic surface within 1 hour of restoration of blood flow, followed by SMC proliferation and intimal hyperplasia, which plateaus at 4 weeks and which is sustained for ±12 weeks (Buchanan MR, Brister SJ: 1998; Buchanan MR et al. 1999).
(§3) Two, four or twelve weeks later, the rabbits were re-anaesthetised and their injured carotid arteries were again isolated. Segments of injured and uninjured carotid artery were harvested and processed histologically to assess VW hyperplasia. Other VW segments and blood samples were collected and processed for VW and plasma 13-HODE levels.

[3] = Observation of hemorrhagic defect in the experimental animals; format: in vivo, rabbits; settings: any of the experimental animals
Experimental: as §1

[4] = test system: VW intimal hyperplasia of injured carotid arteries; experiment: Intimal hyperplasia after carotid artery pressure injury in rabbits; format: in vivo, New Zealand white rabbits; settings: for intimal hyperplasia: 1,000 μg/kg/day for 7 days
Experimental: as §2, §3

[5] = Stability of 13-HODE in dosage forms (oil or ester carrier); format: physicochemical; settings: dissolved in a triglyceride oil carrier or an ester
Experimental: A real problem is presented by the fact that active daily doses of 13-HODE are in the 50 to 1,000 μg/kg/day range. […] That translates into a […] dose for a 70 kg person. Since doses for humans are often considerably lower than doses for animals because of a weight/body surface area scaling, a daily dose of as little as 5 mg or less is really possible. Formulating an oily liquid is such small doses is a problem. It could be absorbed into tabletting materials and tabletted and coated, or micro-encapsulated by methods well known to those skilled in the art. […] Other triglyceride oils such as vegetable oil, including sunflower, safflower, soy, evening primrose, borage, coconut or palm oil, or cottonseed, rapeseed, olive, fish body or fish liver oils may all be used for this purpose. Particualrly useful esters for this purpose are esters of fatty acids with 16-26 carbon atoms and one or more double bonds in the chain.

[6] = human, in vivo; cited from earlier work
intimal SMC hyperplasia = settings: cited from earlier work
[7] = test system: Platelet/injured VW interactions; settings: dose comparable to that used clinically; cited from earlier work
[8] = dose comparable to that used clinically; cited from earlier work
[9] = 3.2 gm daily (20 capsules) for 30 days; cited from earlier work
[10] = test system: Platelet/injured VW interactions; settings: 3.2 gm daily for 30 days; cited from earlier work
[11] = suspended in ethyl-EPA, all treatment levels

CCCCC/C=C\C=C\C(O)CCCCCCCC(=O)O (stereo not shown) [9-HODE, 9-hydroxy-10(E)12(Z) octadecadienoic acid]
minimum effective dose for inhibition of tumour growth rate (Sarcoma 180 tumors): 55 mg/kg/day

CCCCCC(O)/C=C/C=C\CCCCCCCC(=O)O (stereo not shown) [13-HODE, 13-hydroxyoctadeca-9Z, 11E-dienoic acid]
VW 13-HODE levels ([1]; suspended in corn oil, measured 28 days after stopping the treatment): dose-related increase | absolute levels of VW 13-HODE versus corn oil vehicle [1, 11]: somewhat lower | increase in the plasma 13-HODE levels ([2]; 100 μg/kg/day oral, 7 days, suspended in corn oil): three-fold | time to significantly elevated 13-HODE level in cell-free plasma ([2]; 1,000 μg/kg/day oral): ≤ 3 days | effect of increasing the dose on plasma 13-HODE levels ([2]; 1,000 μg/kg/day vs 100 μg/kg/day, corn oil): no further effect | time 13-HODE level in cell-free plasma remained elevated ([2]; 1,000 μg/kg/day, treatment stopped after 7 days): 4 weeks | time for plasma 13-HODE levels to return to almost control levels ([2]; after 7 day oral treatment, corn oil): 14 to 21 days | absolute levels of plasma 13-HODE versus corn oil vehicle [2, 11]: lower | hemorrhagic defect [3]: no detectable hemorrhagic defect | intimal VW hyperplasia ([4]; 100 μg/kg/day for 7 days, in corn oil or ethyl-EPA, p<0.001): significantly inhibited | intimal hyperplasia ([4]; 2 weeks after injury, placebo 18%): 8% | intimal hyperplasia ([4]; 4 weeks after injury, placebo 38%): 16% | intimal hyperplasia ([4]; 12 weeks after injury): > 3% | stability of dosage form [5]: stable without degradation

CC(=O)Oc1ccccc1C(=O)O [ASA]
overall risk reduction (stroke, myocardial infarction, transient ischemic attacks) [6]: 25%

OCCN(CCO)c1nc(N2CCCCC2)c2nc(N(CCO)CCO)nc(N3CCCCC3)c2n1 [Persantine, dipyridamole]
SMC hyperplasia (intimal SMC hyperplasia; 1 mg/kg/day for 7 days before injury, 4 weeks after VW injury): inhibited | platelet function (intimal SMC hyperplasia; 1 mg/kg/day for 7 days): unchanged | decrease of platelet/injured VW interactions [7]: > 2 fold | increase of VW 13-HODE [8]: 30 to 50%

CCCCC/C=C\C/C=C\CCCCCCCC(=O)O [linoleic acid, Octa-deca-9Z, 12Z-dienoic acid]
increase of VW 13-HODE levels [9]: 2 fold | decrease of platelet/injured VW interactions [10]: > 2 fold
